30 compounds from US20150329558A1, “FUSED HETEROCYCLIC COMPOUNDS AS ION CHANNEL MODULATORS” (Gilead Sciences, Inc., priority 2011, published 2015) can be followed below.

The target of this experiment is wild-type human cardiac sodium channel, hNav1.5 (late INa) (Homo sapiens, UniProt Q14524). Put plainly: Late INa screening assay (QPatch whole cell patch clamp). Type of experiment: cell-based. As to conditions: percent block of late INa, compound at 1 μM, 10 μM Tefluthrin, HEK293 hNav1.5; read-out: Late INa 1 μM. As for the experimental part:
The late sodium current (Late INa) and peak sodium current (Peak INa) assays are performed on an automated electrophysiology platform, QPatch 16× (Sophion Bioscience, Copenhagen, Denmark), which uses the whole cell patch clamp technique to measure currents through the cell membrane of up to 16 cells at a time. The assay uses an HEK293 (human embryonic kidney) cell line heterologously expressing the wild-type human cardiac sodium channel, hNav1.5, purchased from Millipore (Billerica, Mass.). No beta subunits were coexpressed with the Na channel alpha subunit. Cells are maintained with standard tissue culture procedures and stable channel expression is maintained with 400 μg/mL Geneticin in the culture medium. […] Experiments are carried out at 23-25° C. For both the Late INa and Peak INa assays, series resistance compensation is set to 100% and series resistance and whole-cell compensation are performed automatically. Currents are digitized at 25 kHz and low-pass filtered at 12 kHz and 10 kHz for the late and peak INa assays, respectively. Currents through open sodium channels are automatically recorded and stored in the Sophion Bioscience Oracle database (Sophion Bioscience, Copehagen, Denmark). Analysis is performed using QPatch Assay and database software and data are compiled in Excel. Compound stocks are routinely made by the Gilead Sample Bank in plastic vials to 10 mM in dimethyl sulfoxide (DMSO). In some cases, when compounds are not soluble in DMSO, they are made in 100% ethanol. Stocks are sonicated as necessary. […] The intracellular solution used to perfuse the inside of the cells for both the Late INa and Peak INa assays contains: 120 mM CsF, 20 mM CsCl, 5 mM EGTA, 5 mM HEPES and pH adjusted to 7.4 with CsOH. Compounds are diluted in extracellular solution to 1 μM in glass vials and then transferred to glass well plates before robotic addition to the cells. […] For the Late INa assay, sodium channels are activated every 10 seconds (0.1 Hz) by depolarizing the cell membrane to −20 mV for 250 milliseconds (ms) from a holding potential of −120 mV. In response to a −20 mV voltage step, typical hNav1.5 sodium currents activate rapidly to a peak negative current and then inactivate nearly completely within 3-4 ms. All compounds were tested to determine their activity in blocking the late sodium current. Late INa was generated by adding 10 μM Tefluthrin (pyrethroid) to the extracellular solution while recording Na currents. To confirm the block of late INa observed using the automated screening method, a second late INa enhancer (ATX-II) and the manual patch clamp method were used. ATX-II and tefluthrin occupy distinct, non-overlapping binding sites and modify Na^+ channel function differently to increase late INa. […] For the purposes of the screening, late INa is defined as the mean current between 225 ms and 250 ms after stepping to −20 mV to activate Na channels. […] Results are reported as percent block of late INa.
A general note: In patch-clamp work, channel activity is measured electrically.

Chain of wild-type human cardiac sodium channel, hNav1.5 (late INa) (Q14524 whole entry): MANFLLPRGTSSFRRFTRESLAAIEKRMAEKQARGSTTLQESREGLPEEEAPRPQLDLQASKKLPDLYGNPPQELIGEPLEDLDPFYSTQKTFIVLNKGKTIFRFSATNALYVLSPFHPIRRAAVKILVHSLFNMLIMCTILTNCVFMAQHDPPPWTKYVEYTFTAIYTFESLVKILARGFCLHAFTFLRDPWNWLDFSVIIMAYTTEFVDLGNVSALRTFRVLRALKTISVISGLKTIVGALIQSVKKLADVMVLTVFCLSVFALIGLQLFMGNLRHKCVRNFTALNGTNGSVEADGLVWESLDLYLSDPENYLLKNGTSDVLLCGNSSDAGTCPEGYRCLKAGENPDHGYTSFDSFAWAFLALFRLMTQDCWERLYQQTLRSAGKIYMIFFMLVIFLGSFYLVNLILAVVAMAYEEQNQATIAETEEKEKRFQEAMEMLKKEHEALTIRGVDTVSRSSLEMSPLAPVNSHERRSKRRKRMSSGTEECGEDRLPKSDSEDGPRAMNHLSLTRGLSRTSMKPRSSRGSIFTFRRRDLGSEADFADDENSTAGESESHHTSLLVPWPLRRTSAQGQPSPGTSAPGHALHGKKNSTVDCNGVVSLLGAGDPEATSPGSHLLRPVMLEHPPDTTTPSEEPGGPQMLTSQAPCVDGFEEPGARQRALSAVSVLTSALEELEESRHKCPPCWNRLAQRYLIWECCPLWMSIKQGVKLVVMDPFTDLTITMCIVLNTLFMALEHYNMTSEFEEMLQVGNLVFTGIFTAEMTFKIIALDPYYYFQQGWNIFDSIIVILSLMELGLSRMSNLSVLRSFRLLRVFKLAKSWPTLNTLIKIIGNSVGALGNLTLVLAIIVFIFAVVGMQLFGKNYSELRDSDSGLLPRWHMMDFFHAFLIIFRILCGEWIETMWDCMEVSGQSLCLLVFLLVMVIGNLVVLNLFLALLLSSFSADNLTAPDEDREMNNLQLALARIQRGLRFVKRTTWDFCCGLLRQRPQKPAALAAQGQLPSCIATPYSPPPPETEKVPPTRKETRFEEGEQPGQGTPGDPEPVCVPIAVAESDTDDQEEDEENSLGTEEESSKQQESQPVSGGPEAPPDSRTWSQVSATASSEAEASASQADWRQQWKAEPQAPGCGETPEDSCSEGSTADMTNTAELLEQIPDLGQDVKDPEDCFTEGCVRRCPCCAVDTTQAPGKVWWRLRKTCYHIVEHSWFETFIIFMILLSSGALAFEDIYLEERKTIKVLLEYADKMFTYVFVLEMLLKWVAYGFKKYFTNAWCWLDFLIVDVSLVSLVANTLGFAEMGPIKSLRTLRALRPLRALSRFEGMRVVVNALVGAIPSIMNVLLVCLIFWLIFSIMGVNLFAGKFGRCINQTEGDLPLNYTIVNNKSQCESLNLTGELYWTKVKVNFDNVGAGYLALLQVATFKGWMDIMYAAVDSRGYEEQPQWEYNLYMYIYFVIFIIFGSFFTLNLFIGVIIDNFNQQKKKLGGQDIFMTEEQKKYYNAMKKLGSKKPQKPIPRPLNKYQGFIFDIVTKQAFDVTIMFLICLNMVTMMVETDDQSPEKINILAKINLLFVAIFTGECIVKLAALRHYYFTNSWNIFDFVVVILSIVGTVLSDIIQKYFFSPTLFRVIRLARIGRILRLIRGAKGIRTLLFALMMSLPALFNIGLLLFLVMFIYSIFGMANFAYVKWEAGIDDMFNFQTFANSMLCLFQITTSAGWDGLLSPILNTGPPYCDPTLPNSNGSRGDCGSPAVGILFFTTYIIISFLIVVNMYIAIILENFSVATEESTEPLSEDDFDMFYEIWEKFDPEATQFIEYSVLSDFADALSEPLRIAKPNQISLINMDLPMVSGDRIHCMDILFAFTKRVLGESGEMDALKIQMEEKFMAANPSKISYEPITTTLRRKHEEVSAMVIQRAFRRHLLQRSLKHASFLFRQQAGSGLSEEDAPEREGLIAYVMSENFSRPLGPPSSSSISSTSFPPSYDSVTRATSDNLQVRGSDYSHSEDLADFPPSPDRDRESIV

On to `O=C(c1ncccn1)N1CCc2ccc(-c3ccc(Cl)cc3F)cc2C1` [IX-23, (7-(4-chloro-2-fluorophenyl)-3,4-dihydroisoquinolin-2(1H)-yl)(pyrimidin-2-yl)methanone], for which the inhibition at 1 µM was 27%.

Regarding `O=C(c1ncccn1)N1CCc2ccc(-c3ccc(Cl)c(F)c3)cc2C1` [IX-24, (7-(4-chloro-3-fluorophenyl)-3,4-dihydroisoquinolin-2(1H)-yl)(pyrimidin-2-yl)methanone], the inhibition at 1 µM came to 19%.

As for `Cc1nn(C)c(C)c1C(=O)N1CCc2ccc(-c3ccc(C(F)(F)F)cc3)cc2C1` [IX-26, (7-(4-(trifluoromethyl)phenyl)-3,4-dihydroisoquinolin-2(1H)-yl)(1,3,5-trimethyl-1H-pyrazol-4-yl)methanone], the inhibition at 1 µM was found to be 15%.

For `CC(C)n1cc(C(=O)N2CCc3ccc(-c4ccc(C(F)(F)F)cc4)cc3C2)cn1` [IX-27, (1-isopropyl-1H-pyrazol-4-yl)(7-(4-(trifluoromethyl)phenyl)-3,4-dihydroisoquinolin-2(1H)-yl)methanone], the inhibition at 1 µM turned out to be 18%.

Take `Cc1nn(C)cc1C(=O)N1CCc2ccc(-c3ccc(C(F)(F)F)cc3)cc2C1` [IX-28, (1,3-dimethyl-1H-pyrazol-4-yl)(7-(4-(trifluoromethyl)phenyl)-3,4-dihydroisoquinolin-2(1H)-yl)methanone]: the inhibition at 1 µM was found to be 24%.

Consider `O=C(Cc1ncccn1)N1CCc2ccc(-c3ccc(C(F)(F)F)cc3)cc2C1` [IX-30, 2-(pyrimidin-2-yl)-1-(7-(4-(trifluoromethyl)phenyl)-3,4-dihydroisoquinolin-2(1H)-yl)ethanone], for which the inhibition at 1 µM was 20%.

Consider `CC(C)c1nccc(C(=O)N2CCc3ccc(-c4ccc(C(F)(F)F)cc4)cc3C2)n1` [IX-31, (2-isopropylpyrimidin-4-yl)(7-(4-(trifluoromethyl)phenyl)-3,4-dihydroisoquinolin-2(1H)-yl)methanone], for which the inhibition at 1 µM turned out to be 25%.

`O=C(c1ccncn1)N1CCc2ccc(-c3ccc(C(F)(F)F)cc3)cc2C1` [IX-32, pyrimidin-4-yl(7-(4-(trifluoromethyl)phenyl)-3,4-dihydroisoquinolin-2(1H)-yl)methanone]: the inhibition at 1 µM was determined as 29%.

As for `O=C(c1cncnc1)N1CCc2ccc(-c3ccc(C(F)(F)F)cc3)cc2C1` [IX-33, pyrimidin-5-yl(7-(4-(trifluoromethyl)phenyl)-3,4-dihydroisoquinolin-2(1H)-yl)methanone], the inhibition at 1 µM stood at 21%.

Regarding `Cc1cc(C(=O)N2CCc3ccc(-c4ccc(C(F)(F)F)cc4)cc3C2)nc(N)n1` [IX-34, (2-amino-6-methylpyrimidin-4-yl)(7-(4-(trifluoromethyl)phenyl)-3,4-dihydroisoquinolin-2(1H)-yl)methanone], the inhibition at 1 µM is 16%.

As to `O=C(c1ccn[nH]1)N1CCc2ccc(-c3ccc(C(F)(F)F)cc3)cc2C1` [IX-36, (1H-pyrazol-5-yl)(7-(4-(trifluoromethyl)phenyl)-3,4-dihydroisoquinolin-2(1H)-yl)methanone], the inhibition at 1 µM is 20%.

In the case of `O=C(NCc1ccccc1)N1CCc2ccc(-c3ccc(C(F)(F)F)cc3)cc2C1` [IX-41, N-benzyl-7-(4-(trifluoromethyl)phenyl)-3,4-dihydroisoquinoline-2(1H)-carboxamide], the inhibition at 1 µM stood at 27%.

Regarding `O=C(Nc1ccccc1)N1CCc2ccc(-c3ccc(C(F)(F)F)cc3)cc2C1` [IX-42, N-phenyl-7-(4-(trifluoromethyl)phenyl)-3,4-dihydroisoquinoline-2(1H)-carboxamide], the inhibition at 1 µM came to 25%.

In the case of `O=C(NC1CC1)N1CCc2ccc(-c3ccc(C(F)(F)F)cc3)cc2C1` [IX-44, N-cyclopropyl-7-(4-(trifluoromethyl)phenyl)-3,4-dihydroisoquinoline-2(1H)-carboxamide], the inhibition at 1 µM turned out to be 27%.

Turning to `O=C(N1CCOCC1)N1CCc2ccc(-c3ccc(C(F)(F)F)cc3)cc2C1` [IX-52, morpholino(7-(4-(trifluoromethyl)phenyl)-3,4-dihydroisoquinolin-2(1H)-yl)methanone], the inhibition at 1 µM is 26%.

Turning to `Cn1cncc1C(=O)N1CCc2ccc(-c3ccc(C(F)(F)F)cc3)cc2C1` [IX-56, (1-methyl-1H-imidazol-5-yl)(7-(4-(trifluoromethyl)phenyl)-3,4-dihydroisoquinolin-2(1H)-yl)methanone], the inhibition at 1 µM was 28%.

For `O=C(c1[nH]cnc1F)N1CCc2ccc(-c3ccc(C(F)(F)F)cc3)cc2C1` [IX-59, (4-fluoro-1H-imidazol-5-yl)(7-(4-(trifluoromethyl)phenyl)-3,4-dihydroisoquinolin-2(1H)-yl)methanone], the inhibition at 1 µM was determined as 17%.

`O=C(NC1CCCC1)N1CCc2ccc(-c3ccc(C(F)(F)F)cc3)cc2C1` [IX-77, N-cyclopentyl-7-(4-(trifluoromethyl)phenyl)-3,4-dihydroisoquinoline-2(1H)-carboxamide]: the inhibition at 1 µM is 22%.

On to `O=C(N1CCC1)N1CCc2ccc(-c3ccc(C(F)(F)F)cc3)cc2C1` [IX-88, azetidin-1-yl(7-(4-(trifluoromethyl)phenyl)-3,4-dihydroisoquinolin-2(1H)-yl)methanone], for which the inhibition at 1 µM turned out to be 25%.

As to `CC1CCN(C(=O)N2CCc3ccc(-c4ccc(C(F)(F)F)cc4)cc3C2)C1` (stereo not drawn) [IX-90, (3-methylpyrrolidin-1-yl)(7-(4-(trifluoromethyl)phenyl)-3,4-dihydroisoquinolin-2(1H)-yl)methanone], the inhibition at 1 µM came to 27%.

As to `O=C(N1CCc2ccc(-c3ccc(C(F)(F)F)cc3)cc2C1)N1CCC(O)C1` (stereo not drawn) [IX-91, (3-hydroxypyrrolidin-1-yl)(7-(4-(trifluoromethyl)phenyl)-3,4-dihydroisoquinolin-2(1H)-yl)methanoneo], the inhibition at 1 µM came out at 16%.

Take `O=C(N1CCc2ccc(-c3ccc(C(F)(F)F)cc3)cc2C1)N1CC(F)(F)C1` [IX-92, (3,3-difluoroazetidin-1-yl)(7-(4-(trifluoromethyl)phenyl)-3,4-dihydroisoquinolin-2(1H)-yl)methanone]: the inhibition at 1 µM came to 17%.

Consider `O=C(N1CCc2ccc(-c3ccc(C(F)(F)F)cc3)cc2C1)N1CC(Oc2cccnc2)C1` [IX-93, (3-(pyridin-3-yloxy)azetidin-1-yl)(7-(4-(trifluoromethyl)phenyl)-3,4-dihydroisoquinolin-2(1H)-yl)methanone], for which the inhibition at 1 µM worked out at 15%.

With `O=C(N1CCc2ccc(-c3ccc(C(F)(F)F)cc3)cc2C1)N1CCC(F)C1` (stereo not drawn) [IX-94, (3-fluoropyrrolidin-1-yl)(7-(4-(trifluoromethyl)phenyl)-3,4-dihydroisoquinolin-2(1H)-yl)methanone], the inhibition at 1 µM stood at 33%.

In the case of `O=C(N1CCc2ccc(-c3ccc(C(F)(F)F)cc3)cc2C1)N1CC(F)C1` [IX-95, (3-fluoroazetidin-1-yl)(7-(4-(trifluoromethyl)phenyl)-3,4-dihydroisoquinolin-2(1H)-yl)methanone], the inhibition at 1 µM was 25%.

Regarding `Cn1cnc(S(=O)(=O)N2CCc3ccc(-c4ccc(C(F)(F)F)cc4)cc3C2)c1` [IX-98, 2-(1-methyl-1H-imidazol-4-ylsulfonyl)-7-(4-(trifluoromethyl)phenyl)-1,2,3,4-tetrahydroisoquinoline], the inhibition at 1 µM was found to be 27%.

For `O=C(N1CCc2ccc(-c3ccc(C(F)(F)F)cc3)cc2C1)N1CC[C@@H](CO)C1` [IX-101, (R)-(3-(hydroxymethyl)pyrrolidin-1-yl)(7-(4-(trifluoromethyl)phenyl)-3,4-dihydroisoquinolin-2(1H)-yl)methanone], the inhibition at 1 µM was determined as 15%.

Regarding `O=C(N1CCc2ccc(-c3ccc(C(F)(F)F)cc3)cc2C1)N1CCC[C@H]1CO` [IX-102, (S)-(2-(hydroxymethyl)pyrrolidin-1-yl)(7-(4-(trifluoromethyl)phenyl)-3,4-dihydroisoquinolin-2(1H)-yl)methanone], the inhibition at 1 µM was 27%.

Consider `CS(=O)(=O)C1CN(C(=O)N2CCc3ccc(-c4ccc(C(F)(F)F)cc4)cc3C2)C1` [IX-104, (3-(methylsulfonyl)azetidin-1-yl)(7-(4-(trifluoromethyl)phenyl)-3,4-dihydroisoquinolin-2(1H)-yl)methanone], for which the inhibition at 1 µM was 20%.

As for `C[C@@H]1CC[C@H](C)N1C(=O)N1CCc2ccc(-c3ccc(C(F)(F)F)cc3)cc2C1` [IX-106], the inhibition at 1 µM was determined as 21%.
